Assay results: patent US9150510B2, “Amino acid derivative” (NIPPON ZOKI PHARMACEUTICAL CO., LTD., priority 2008, dated 2015)
Counter-ions that a name gives are not always drawn.

What was measured:
[1] = Test of blood kinetics in the rats; type: in vivo; details: rat, plasma, 2 mg/kg, fasted Wistar male rats, oral single dose of mixed solution of five compounds, each compound 2 mg/5 mL/kg, n=5, LC-MS; for AUC(0-inf): read-out: AUC0-∞ (area under the curve for concentration in blood, time 0 to infinite hours); for Cmax: read-out: Cmax (maximum concentration in plasma)
Protocol: Ten milligrams of a compound of the present invention was properly converted to a sodium salt with the same amount of sodium hydroxide, where necessary, and each was dissolved in 5 mL of water. Five compounds each among these aqueous solutions of the compounds of the present inventions were mixed, to prepare a mixed solution containing 0.4 mg/mL each of each compound. Six-week old Wistar SPF male rats that were fasted were orally administered with the mixed solution in a single dose using a gavage tube (each compound 2 mg/5 mL/kg, n=5). At time points of 0.25, 0.5, 1, 2, 4, and 8 hours after the administration, about 150 μL of blood was collected using a heparin-added capillary tube from veins of rat tails. The capillary tubes were centrifuged to collect the plasma. The plasma sample was deprotenized and the supernatant was diluted to prepare each of measurement sample solutions. The concentration of the compound of the present invention in each of measurement sample solutions was quantified using LC-MS, and Cmax (maximum concentration in plasma) and AUC (area under the curve for concentration in blood, time 0 to infinite (∞) hours) of the compounds of the present invention were calculated.

[2] = system: ddY-type mice; assay: Analgesic efficacy test (1): acetic acid writhing test (nociceptive pain model animal); type: in vivo; details: Mus musculus, 25 min, writhing number, male ddY mice, acetic acid i.p. 25 min after administration, mean ± standard error, read-out: Percent Suppression (%); for inhibition in vivo at 10 mg/kg: oral single dose 10 mg/kg; for inhibition in vivo at 100 mg/kg: oral single dose 100 mg/kg; for inhibition in vivo at 3 mg/kg: oral single dose 3 mg/kg
Description: A compound of the present invention was orally administered to mice, to carry out an analgesic efficacy test according to acetic acid writhing test (nociceptive pain model animal). As an experimental animal, 4-week old male ddY-type mice were previously bred, and thereafter 8 mice per one group were used in the experiment. A solution or suspension prepared by dissolving or suspending a compound of the present invention in a 0.5% (w/v) aqueous CMC-Na solution was orally administered as a test substance in a single dose. While, to a control group, a 0.5% (w/v) aqueous CMC-Na solution was administered in the same manner. After 25 minutes from administration, the mice were intraperitoneally administered with a 0.7% (v/v) acetic acid/physiological saline at the dose of 10 mL/kg. From 5 minutes thereafter, writhing number in a 10-minute period was counted, and a suppressive rate for each individual (mean±standard error) was calculated by the following formula: […]
In the test for significance difference, Baltlett's test was carried out in the comparison between multiple groups of the group administered with test substance with the control group. In the case of homoscedasticity, Dunnett's multiple comparison test of parametrics, and in the case of heteroscedasticity, Dunnett's multiple comparison test of non-parametrics were used. In addition, in the test of dose dependency, Jockheere-Terpstra's test was used. In all cases, significance difference was considered to be found at P<0.05.

AUC(0-inf) [1] [ng·h/mL]	Cmax [1] [ng/mL]	SMILES	inhibition in vivo at 10 mg/kg [2] [%]	inhibition in vivo at 100 mg/kg [2] [%]	also measured
116000	33000	COc1ccc(C[C@H](NC(=O)C=Cc2ccc(F)cc2F)C(=O)O)cc1 [Compound 51, N-[3-(2,4-Difluorophenyl)acryloyl]-O^4-Methyl-L-Tyrosine]	42.2 ± 9.1		
61700	48700	COc1ccc(C[C@H](NC(=O)C=Cc2ccccc2F)C(=O)O)cc1 [Compound 40, N-[3-(2-Fluorophenyl)acryloyl]-O^4-methyl-L-tyrosine]	42.3 ± 7		
		COc1ccc(C[C@H](NC(=O)C=Cc2cccc(O)c2)C(=O)O)cc1 [Compound 43, N-[3-(3-Hydroxyphenyl)acryloyl]-O^4-methyl-L-tyrosine]	45.3 ± 10.8		
		Cn1cc(C[C@H](NC(=O)C=Cc2c(F)cccc2F)C(=O)O)c2ccccc21 [Compound 31, N^α-[3-(2,6-Difluorophenyl)acryloyl]-1-methyl-L-tryptophan]		31.5 ± 9.7	
		COc1ccc(C[C@H](NC(=O)C=Cc2cc(C(F)(F)F)cc(C(F)(F)F)c2)C(=O)O)cc1 [Compound 53, N-{3-[3,5-Bis(trifluoromethyl)phenyl]acryloyl}-O^4-methyl-L-tyrosine]		32 ± 14.6	
		COc1ccc(C[C@H](NC(=O)C=Cc2cccc(F)c2)C(=O)O)cc1 [Compound 41, N-[3-(3-Fluorophenyl)acryloyl]-O^4-methyl-L-tyrosine]		47.3 ± 15.7	
		O=C(C=Cc1ccccc1Cl)N[C@@H](Cc1c[nH]c2ccccc12)C(=O)O [Compound 12, N^α-[3-(2-Chlorophenyl)acryloyl]-L-tryptophan]		34.9 ± 11.5	
404000	53300	Cn1cc(C[C@H](NC(=O)C=Cc2ccccc2F)C(=O)O)c2ccccc21 [Compound 27, N^α-[3-(2-Fluorophenyl)acryloyl]-1-methyl-L-tryptophan]			inhibition in vivo at 3 mg/kg [2]: 45 ± 10%
		O=C(C=Cc1cccc(O)c1)N[C@@H](Cc1c[nH]c2ccccc12)C(=O)O [Compound 6, N^α-[3-(3-Hydroxyphenyl)acryloyl]-L-tryptophan]		39.2 ± 15.4	
		O=C(C=Cc1ccc(O)cc1)N[C@@H](Cc1c[nH]c2ccccc12)C(=O)O [Compound 7, N^α-[3-(4-Hydroxyphenyl)acryloyl]-L-tryptophan]		37.3 ± 11.8	
6800	1500	N#CC(=Cc1ccccc1)C(=O)N[C@@H](Cc1c[nH]c2ccccc12)C(=O)O [Compound 25, N^α-(2-Cyano-3-phenylacryloyl)-L-tryptophan]	41.2 ± 11.1		
		O=C(C=Cc1ccccc1F)N[C@@H](Cc1ccc(O)cc1)C(=O)O [Compound 62, N-[3-(2-Fluorophenyl)acryloyl]-L-tyrosine]	39.2 ± 13.5		
		Cn1cc(C[C@H](NC(=O)C=Cc2ccc(Oc3ccccc3)cc2)C(=O)O)c2ccccc21 [Compound 35, 1-Methyl-N^α-[3-(4-phenoxyphenyl)acryloyl]-L-tryptophan]		55.2 ± 7.4	
148000	15000	O=C(C=Cc1ccccc1F)N[C@H](Cc1c[nH]c2ccccc12)C(=O)O [Compound 24, N^α-[3-(2-Fluorophenyl)acryloyl]-D-tryptophan]	35.8 ± 9.3		
38200	18000	COc1ccc(C[C@H](NC(=O)C=Cc2cc(F)ccc2F)C(=O)O)cc1 [Compound 52, N-[3-(2,5-Difluorophenyl)acryloyl]-O^4-methyl-L-tyrosine]			inhibition in vivo at 3 mg/kg [2]: 50.9 ± 7.4%
		O=C(C=Cc1ccccc1F)N[C@@H](CO)C(=O)O [Compound 66, N-[3-(2-Fluorophenyl)acryloyl]-L-serine]		56 ± 6.9	
		COc1ccc(C[C@H](NC(=O)C=Cc2ccccc2Cl)C(=O)O)cc1 [Compound 49, N-[3-(2-Chlorophenyl)acryloyl]-O^4-methyl-L-tyrosine]		31.8 ± 7	
		COc1ccc(C[C@H](NC(=O)C=Cc2cccc(C#N)c2)C(=O)O)cc1 [Compound 54, N-[3-(3-Cyanophenyl)acryloyl]-O^4-methyl-L-tyrosine]		33.3 ± 10	

AUC(0-inf) [1] [ng·h/mL]	Cmax [1] [ng/mL]	SMILES	inhibition in vivo at 10 mg/kg [2] [%]	inhibition in vivo at 100 mg/kg [2] [%]	also measured
		COc1ccc(C[C@H](NC(=O)C=Cc2ccccc2C(F)(F)F)C(=O)O)cc1 [Compound 47, O^4-Methyl-N-[3-(2-Trifluoromethylphenyl)acryloyl]-L-Tyrosine]		36.2 ± 11.2	
		O=Cn1cc(C[C@H](NC(=O)C=Cc2ccccc2F)C(=O)O)c2ccccc21 [Compound 68, N^α-[3-(2-Fluorophenyl)acryloyl]-1-formyl-L-tryptophan]		55.4 ± 9.9	
16500	3200	Cn1cc(C[C@H](NC(=O)C=Cc2cccc(C#N)c2)C(=O)O)c2ccccc21 [Compound 34, N^α-[3-(3-Cyanophenyl)acryloyl]-1-methyl-L-tryptophan]	45.2 ± 6.3		
13400	3600	Cn1cc(C[C@H](NC(=O)C=Cc2ccccc2C#N)C(=O)O)c2ccccc21 [Compound 30, N^α-[3-(2-Cyanophenyl)acryloyl]-1-methyl-L-tryptophan]	35.8 ± 9.9		
		COc1ccc(C[C@H](NC(=O)C=Cc2ccc(O)cc2)C(=O)O)cc1 [Compound 44, N-[3-(4-Hydroxyphenyl)acryloyl]-O^4-methyl-L-tyrosine]	48 ± 10.3		
11400	2300	Cn1cc(C[C@H](NC(=O)C=Cc2ccc(C#N)cc2)C(=O)O)c2ccccc21 [Compound 36, N^α-[3-(4-Cyanophenyl)acryloyl]-1-methyl-L-tryptophan]	49.7 ± 11.3		
183000	37700	Cn1cc(C[C@H](NC(=O)C=Cc2ccc(F)cc2)C(=O)O)c2ccccc21 [Compound 28, N^α-[3-(4-Fluorophenyl)acryloyl]-1-methyl-L-tryptophan]	56.5 ± 5.3		
		NC(=O)CC[C@H](NC(=O)C=Cc1ccccc1F)C(=O)O [Compound 65, N^α-[3-(2-Fluorophenyl)acryloyl]-L-glutamine]		31.6 ± 13.1	
7000	3500	COc1ccc(C[C@H](NC(=O)C=Cc2ccc(C#N)cc2)C(=O)O)cc1 [Compound 56, N-[3-(4-Cyanophenyl)acryloyl]-O^4-methyl-L-tyrosine]		48.7 ± 10.1	
		Cn1cc(C[C@H](NC(=O)C=Cc2ccccc2O)C(=O)O)c2ccccc21 [Compound 26, N^α-[3-(2-Hydroxyphenyl)acryloyl]-1-methyl-L-tryptophan]	30.5 ± 9.2		
		COc1ccc(C[C@H](NC(=O)C=Cc2ccccc2C#N)C(=O)O)cc1 [Compound 46, N-[3-(2-Cyanophenyl)acryloyl]-O^4-methyl-L-tyrosine]		38.7 ± 11.3	
6800	1500	Cn1cc(C[C@H](NC(=O)C(C#N)=Cc2ccccc2F)C(=O)O)c2ccccc21 [Compound 37, N^α-[2-Cyano-3-(2-fluorophenyl)acryloyl]-1-methyl-L-tryptophan]	37.9 ± 7.5		
		COc1ccc(C[C@H](NC(=O)C=Cc2c(F)cccc2F)C(=O)O)cc1 [Compound 50, N-[3-(2,6-Difluorophenyl)acryloyl]-O^4-methyl-L-tyrosine]		35.1 ± 15.4	
		COc1ccc(C[C@H](NC(=O)C=Cc2ccccc2OC)C(=O)O)cc1 [Compound 48, N-[3-(2-Methoxyphenyl)acryloyl]-O^4-methyl-L-tyrosine]	43.2 ± 7.3		
		NCCCC[C@H](NC(=O)C=Cc1ccccc1F)C(=O)O [Compound 61, N^α-[3-(2-Fluorophenyl)acryloyl]-L-lysine hydrochloride]		40.5 ± 7.8	
57700	18800	COc1ccc(C[C@H](NC(=O)C=Cc2ccc(F)cc2)C(=O)O)cc1 [Compound 42, N-[3-(4-Fluorophenyl)acryloyl]-O^4-methyl-L-tyrosine]		52.7 ± 8.3	
		NCCC[C@H](NC(=O)C=Cc1ccccc1F)C(=O)O [Compound 63, N^α-[3-(2-Fluorophenyl)acryloyl]-L-ornithine hydrochloride]	41.1 ± 7.8		
